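Cultured in 96-well plates, cells were exposed to test compound for 48 hours across five concentrations. GI50 marks 50% less growth. TGI marks complete inhibition of growth.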
Experiments:
Experiment in all cases: growth of human tumour cells (NCI), 48 h
[1] = system: SW-620 colon
[2] = system: PC-3 prostate
[3] = system: NCI-H460 lung
[4] = system: TK-10 renal
[5] = system: RXF 393 renal
[6] = system: UACC-257 melanoma
[7] = system: 786-0 renal
[8] = system: MDA-MB-231 breast
[9] = system: ACHN renal
[10] = system: NCI/ADR-RES ovarian

Compound	GI50 [1] [µM]	TGI [1] [µM]	GI50 [2] [µM]	TGI [2] [µM]	GI50 [3] [µM]	TGI [3] [µM]	GI50 [4] [µM]	TGI [4] [µM]	GI50 [5] [µM]	TGI [5] [µM]	GI50 [6] [µM]	TGI [6] [µM]	GI50 [7] [µM]	TGI [7] [µM]	GI50 [8] [µM]	TGI [8] [µM]	GI50 [9] [µM]	TGI [9] [µM]	GI50 [10] [µM]	TGI [10] [µM]
O=C1OCC2=C1C(c1ccc(Cl)c(Cl)c1)c1cc3c(cc1N2CCO)CCC3 (stereo unspecified)	0.166	10.7	0.163	8.76	0.186	6.03	0.312	13.2	0.141	1.46	0.151	15.7	0.242	10.2	0.747	9.36	0.371	12.2	0.123	2.3
O=c1ssc(Cl)c1Cl		> 8.11		> 10		> 10		> 10		> 10		> 10		> 7.05		> 10		> 10		> 10
NCOC(=O)Cc1ccc(Br)cc1		> 100		> 100		> 100		> 100		> 100		> 100		> 100		> 100		> 100		> 100
COc1ccc(C2=NN(C(=O)c3cc(OC)c(OC)c(OC)c3)C(c3ccc(N(C)C)cc3)C2)cc1 (stereo unspecified)	0.427	> 100	0.529	> 100	0.397		0.682	> 100	0.252	0.723	97.6	> 100	0.295		1.72	8.75	0.622	> 100	0.379	
O=c1oc2ccc(Br)cc2c(=O)n1-c1ccc(I)cc1F	0.479	10.5	1.13	5.86	0.367	5.57	0.631	7.39	0.396	1.93	0.328	1.91	1.96	6.16	0.327	2.54	0.401	6.04	0.355	2.32
COc1cc(-c2c(C#N)c(N)nc(N3CCOCC3)c2C#N)cc(OC)c1OC	> 100	> 100	> 100	> 100	> 100	> 100	> 100	> 100	> 100	> 100	> 100	> 100	> 100	> 100	22.6	78.9	> 100	> 100	> 100	> 100
CCCCCCCCn1ccc2cc(NC(=O)Cn3cc(CN4CCCCC4)nn3)ccc21	1.84	3.59	1.43	3.05	1.89	3.67	2.44	6.63	1.46	3.06	2.01	4.45	1.8	3.44	1.8	3.52	1.72	3.19	2.92	10.2
CC(=O)OC12COC1CC(O)C1(C)C(=O)C(O)C3=C(C)C(O)CC(O)(C(OC(=O)c4ccccc4)C21)C3(C)C (stereo unspecified)	2.48	> 100		> 28.5		> 100		> 100		> 100		> 100		> 100		> 100		> 100		> 100
Cc1ccc2c(c1)S(=O)(=O)c1ccc3ccccc3c1N2		> 100		> 100		> 100		> 100		> 100		> 100		> 100		> 100		> 100		> 100
Cn1c(NCC(O)CN2CCCC2)cc(=O)n(C)c1=O (stereo unspecified)	> 100	> 100	> 100	> 100	> 100	> 100	> 100	> 100	> 100	> 100	> 100	> 100	> 100	> 100	> 100	> 100	> 100	> 100	> 100	> 100
O=C1c2ccccc2-c2c1c1ccccc1c(=O)n2CCCNCCCCNCCCN1C(=O)c2ccccc2C2C(=O)c3ccccc3C21 (stereo unspecified)	0.126	1.21	0.512	1.24	0.0426	2.39	0.614	1.45	0.0305	0.823	3.86	11.7	0.0786	0.782	0.284	1.04	0.0573	0.762	0.859	2.63
CCOc1cccc(-c2nc(N)nc(Nc3ccccc3SSc3ccccc3Nc3nc(N)nc(-c4cccc(OCC)c4)n3)n2)c1	4.56	> 100	0.671	15.3	3.03	> 100	6.26	86.8	2.86	8.75	> 100	> 100	5.03	69.7	3.72	27	2.14	5.8	3.32	> 100
Clc1ccc(OCc2nnc3n2N=C(c2ccc(Cl)cc2Cl)CS3)cc1	31.6	> 100	27.6	> 100	17.2	51	15.9	> 100	13.7	31.8	25	50	32.7	> 100	14.4	33.2	20.4	49.3	16.2	37.9
O=C(O)c1ccc(C(=O)O)c(C(=O)Nc2ccc3c(c2)C(=O)c2ccccc2-3)c1		> 100		> 100		> 100		> 100		> 100		> 100		> 100		> 100		> 100		> 100
COc1ccc(/C=C2\C=C(c3ccccc3)N(CCc3ccccc3)C2=O)cc1OC	13.6	> 100	21.1	> 100	7.34	30.7	2.28	4.91	3.64	15.6	20.2	86.8	2.14	5.85	4.16	17.9	3.53	14	9.03	68.5
CCN(CC)C1CCC(Nc2c(C(C)=O)cnc3ccc(-c4ccc(O)c(Cl)c4)cc23)CC1 (stereo unspecified)	0.933	4.38	0.494	> 44.5	0.311	1.87	3.52	> 100	0.615	2.28	2.77	18.3	1.64	44.8	0.741	12.5	0.485	> 37.8	0.821	5.55
CC(=O)OC1CC2C3CCC4C[C@@H](NC(=O)C=C(C)C)CC[C@]4(C)C3CC[C@]2(C)[C@H]1C(C)N(C)C (stereo partly specified)	1.65	3.47	2.14	8.97	0.885	2.65	5.45	13.3	1.59	3.66	2.18	4.5	1.65	3.17	2.1	4.72	2.73	7.36	4.13	16.5
NC(N)=N/N=C/c1ccc(-c2ccc(-c3cc(Cl)cc(Cl)c3)s2)cc1	1.66	3.34	1.58	3.16	1.7	3.46	1.71	3.54	1.67	3.37	1.94	4.22	1.74	3.66	1.77	3.36	1.75	3.29	2	4.33
COc1cc(/C=C2\C[C@H]3[C@@H]4CC=C5C[C@@H](O)CC[C@]5(C)[C@H]4CC[C@]3(C)[C@H]2O)ccc1OCCCn1ccnc1			1.45	5.03	1.52	5.11	0.738	2.09	2.52	43.4	6.3	15.4	1.23	3.09	0.863	1.74	1.28	3.34	13.6	> 50
Cn1c(=O)c(Oc2ccc(F)cc2F)cc2cnc(NC3CCS(=O)(=O)CC3)nc21	> 25	> 25	> 25	> 25	> 25	> 25	> 25	> 25	> 25	> 25	> 25	> 25	> 25	> 25	> 22	> 25	> 14.3	> 25	> 25	> 25
